Data on one substance can be found in patent publication US8673852B2, “Methods of treating neuronal disorders using MNTF peptides and analogs thereof” (Genervon Biopharmaceuticals, LLC, priority 2006, dated 2014).

Values joined by “and” are separate entries in the source; they are usually repeats but may differ in a detail not shown here. Equal entries are not always repeated. Where two headings read alike, the source gives them in different places. Ends that are not written are not given here.

One data set deals with SH-SY5Y cells. The data set is described as follows: Cell culture model of Parkinson's disease: SH-SY5Y cell viability (MTT) with or without salsolinol. Format: cell-based, human. As to conditions: 24 h. On the procedure:
SH-SY5Y cells were purchased from American Type Culture Collection (Manassas, Va.) and cultured in a complete media containing minimum essential media, Hams F-12 media and Hanks Balanced Salt Solution Gibco-BRL) in a ratio of 2:1:1. The media also contained 10% fetal bovine serum along with penicillin (50 U/ml) and streptomycin ([…]). The cells were cultured in flasks and kept in a humidified incubator containing 5% CO2 in air at 37° C. The media was changed every 2-3 days.
Prior to manipulation, cultures were assigned to different treatment groups based on a randomized block design.
For cell viability experiments, SH-SY5Y cells (0.5×10^5/well) were cultured in a 96-well cell culture plate and treated with (±) SAL (Sigma, St. Louis, Mo.) alone or along with different concentrations of (GM6) (Genervon), with or without Wortmannin (WRT) (Sigma, St. Louis, Mo.), a phosphatidylinositol-3-kinase (PI-3 kinase) inhibitor, for 24 h. Cell viability was determined by Thiazolyl blue (MTT) assay.

Data set [1] relates to primary rat neuronal cell cultures. In kind it is cell-based. On the procedure:
Sprague Dawley rat cortical neuronal cells were isolated from 18-day-old embryonic fetuses and growth in culture for 12 days. Post mortem CSF from control and various neurological disorders donors were applied to the cultures and examined for neuronal viability. In addition, MNTF was added to the cultures to protect the cells from injury.
Neuronal cultures were prepared from 18-day-old Sprague-Dawley rat fetuses. Fetal rat midbrains were dissected and incubated for 15 min in a solution of 2 mg/mL trypsin in Ca2+- and Mg2+-free Hanks' balanced salt solution (HBSS) buffered with 10 mM HEPES (GIBCO Life Technologies, Paisley, Scotland). The tissue was then exposed for 2 min to soybean trypsin inhibitor (1 mg/mL in HBSS) and rinsed three times in HBSS. Cells were dissociated by trituration and distributed to 96-well or 24-well poly-L-lysine-coated plastic culture plates (Costar, Cambridge, Mass.). Initial plating densities were approximately 160-180 cells/mm2. At the time of plating, each well contained 0.2 ml of DMEM/F12 medium (GIBCO Life Technologies, NY) supplemented with 100 mL/L fetal bovine serum (Sigma Chemicals, St. Louis, Mo.). After a 24-hr period, the DMEM/F12 medium was replaced with 0.15 mL of 2% v/v B-27 Neurobasal medium supplemented with 2 mM GlutaMAX and 0.5% w/v D-(+) glucose (GIBCO Life Technologies). Twice a week, two-thirds of the Neurobasal medium was replaced with freshly prepared medium of the same composition. Cultures were used for neurotoxicity experiments after 12 days in culture. The research investigators at NTS were unaware of the material prior to, during the study and when the preliminary data were presented to the Sponsor (GB).
UCLA Human Brain and Spinal Fluid Resource Center (Los Angeles, Calif.) supplied the post mortem CSF samples from five donors of each of the nine study groups along with identification and clinical diagnosis and neuropathology diagnosis documents. Samples were stored at −170° C. prior to shipment and were shipped with dry ice. The study groups were control (no neurological disorder), Amyotrophic Lateral Sclerosis (ALS), Neuropathy (NP), Multiple Sclerosis (MS), Alzheimer's Disease (AD), Batten's Disease (BD), Huntington's Disease (HD), Parkinson's Disease (PD), and Cerebral Ischemia (stroke).
To test the effects of CSF on neuronal cell survival, CSF was added to the cultures in Neurobasal medium containing 10% CSF. CSF was added to the cultures and examined after 48 hours. Images of cultures were taken and then the cultures were subjected to MTT assay (see below) to determine the % cell death. Additional cultures were incubated with MNTF (100 nM) added to the cultures 2 hours prior to addition of CSF.
MTT assay. Viability of primary neurons was determined as described. The relative number of surviving cells was determined in triplicate using the value for cells stimulated with vehicles as 100%. Cell survival was assessed on the 2nd day of treatment via an MTT assay. MTT (3-[4,5-dimethylthiazol-2-yl]-2,5-diphenyltetrazolium bromide) was diluted to […] in Hanks' solution (Biochrom) and added to cultures for two hours at 37° C. The MTT formazan product was released from the cells by adding dimethylsulfoxide, and measured at 570 nm in an Ultrospect III spectrophotometer (Pharmacia). Relative survival in comparison to untreated controls could then be determined.

As to FSRYAR [GM6, FSRYAR], the “Viability (% Cells) Mean ± SD” value in the data set on SH-SY5Y cells (GM6 0.1 mg/ml, no salsolinol, MTT) was 101.2 ± 7.260%; in the data set on SH-SY5Y cells (GM6 1 mg/ml, no salsolinol, MTT) it was 108.0 ± 8.249%; in the data set with SH-SY5Y cells (GM6 10 mg/ml + WRT (10 μM), no salsolinol), 93.81 ± 9.246%; in the data set on SH-SY5Y cells (GM6 10 mg/ml, no salsolinol, MTT), 119.9 ± 14.01%; in the data set on SH-SY5Y cells (Salsolinol 100 μM + GM6 0.1 mg/ml), 66% and 65.85 ± 10.80%; in the data set with SH-SY5Y cells (Salsolinol 100 μM + GM6 1 mg/ml) it was 85% and 85.19 ± 10.18%. The “Viability (% Cells) Mean ± SD” value in the data set with SH-SY5Y cells (Salsolinol 100 μM + GM6 10 mg/ml + WRT (10 μM)) was 41.35 ± 10.79%; in the data set with SH-SY5Y cells (Salsolinol 100 μM + GM6 10 mg/ml), 95% and 95.57 ± 8.328%. The “% increase (↑) in cell survival” value in data set [1] (AD CSF + 100 nM MNTF vs AD CSF) turned out to be 191%; in data set [1] (ALS CSF + 100 nM MNTF vs ALS CSF), 175%; in data set [1] (HD CSF + 100 nM MNTF vs HD CSF), 271%; in data set [1] (MS CSF + 100 nM MNTF vs MS CSF), 246%; in data set [1] (PD CSF + 100 nM MNTF vs PD CSF), 198%; in data set [1] (Stroke CSF + 100 nM MNTF vs Stroke CSF) it was 205%.
